Test systems include TK-10 renal; T-47D breast; UACC-62 melanoma; NCI-H522 lung; ACHN renal; SK-MEL-28 melanoma; NCI-H460 lung; HL-60(TB) leukemia; SN12C renal; UACC-257 melanoma.
Holding throughout (experiment): NCI tumour cell line growth inhibition, 48 h

Several values for one entry are separate records, joined by “and”; a condition that tells them apart may be missing. Equal values may be shown once.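 Protocol summary: plate cells (96-well), add compound at 5 concentrations, incubate 48 h, interpolate endpoints linearly. At the GI50, growth is halved. TGI: total growth inhibition.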

For `CC[C@@]1(O)C(=O)OCc2c1cc1n(c2=O)Cc2c-1nc1cc3c(cc1c2C)OCO3`, the GI50 in the experiment with TK-10 renal is 0.043 µM and 0.0311 µM; in the experiment with T-47D breast, under 0.0001 µM; in the experiment with UACC-62 melanoma it was under 0.0001 µM; with NCI-H522 lung, 0.000159 µM; with ACHN renal, under 0.0001 µM; in the experiment on SK-MEL-28 melanoma, 0.0395 µM and 0.0765 µM. Moreover, the GI50 with NCI-H460 lung was under 0.0001 µM; with HL-60(TB) leukemia, under 0.0001 µM; in the experiment with SN12C renal it was under 0.0001 µM; in the experiment with UACC-257 melanoma, 0.0159 µM. For the same compound, the TGI with TK-10 renal was 3.56 µM; in the experiment on UACC-62 melanoma it was 0.0143 µM; in the experiment on ACHN renal, 0.0601 µM; in the experiment on SK-MEL-28 melanoma, over 100 µM; with NCI-H460 lung, 0.0868 µM and 0.0135 µM; in the experiment with SN12C renal, 27 µM. In addition, the TGI in the experiment on UACC-257 melanoma stood at 0.278 µM.

In the case of `C=C(CN1CCN(c2cccc(C(F)(F)F)n2)CC1)c1ccc(C(=S)Nc2ccccc2N)cc1`, the GI50 in the experiment with TK-10 renal was 3.13 µM; in the experiment with T-47D breast, 2.26 µM; in the experiment on UACC-62 melanoma it was 2.28 µM; with NCI-H522 lung, 3.01 µM; in the experiment with ACHN renal, 3.88 µM; with SK-MEL-28 melanoma it was 6.95 µM. Also, the GI50 in the experiment on NCI-H460 lung was 2.99 µM; in the experiment with HL-60(TB) leukemia, 2.29 µM; with SN12C renal, 4.64 µM; with UACC-257 melanoma it was 3.33 µM. Further, the TGI is over 100 µM in the experiment with TK-10 renal; 8.54 µM with T-47D breast; 6.89 µM in the experiment with UACC-62 melanoma; 31.4 µM with NCI-H522 lung; over 100 µM with ACHN renal; 42.1 µM in the experiment with SK-MEL-28 melanoma. Also, the TGI was 18.8 µM with NCI-H460 lung, 5.66 µM in the experiment with HL-60(TB) leukemia, over 100 µM with SN12C renal and 18.8 µM with UACC-257 melanoma.

`C/C(=C\COc1c2c(cc3c1CCO3)OC1(C=C2)OC(CC/C(C)=C/COc2c3ccoc3cc3oc(=O)ccc23)C(C)(C)O1)CCC(O)C(C)(C)O` (configuration not stated): the GI50 with TK-10 renal was 78.8 µM; in the experiment on T-47D breast, 3.13 µM; in the experiment with UACC-62 melanoma, 4.87 µM; with NCI-H522 lung, 24.3 µM; in the experiment on ACHN renal, 15 µM; in the experiment with SK-MEL-28 melanoma, 16.9 µM. Further, the GI50 in the experiment on NCI-H460 lung was 9.65 µM; in the experiment with HL-60(TB) leukemia it was 3.61 µM; in the experiment on SN12C renal, 89.1 µM; with UACC-257 melanoma it was 25.3 µM. Besides, the TGI with TK-10 renal, in the experiment on T-47D breast, in the experiment with UACC-62 melanoma, in the experiment on NCI-H522 lung, with ACHN renal and with SK-MEL-28 melanoma was over 100 µM in each case. For the same compound, the TGI in the experiment on NCI-H460 lung was over 100 µM; with HL-60(TB) leukemia, 20.9 µM; in the experiment with SN12C renal, over 100 µM; in the experiment with UACC-257 melanoma, over 100 µM.

As for `CC/C(=C(/c1ccc(O)cc1)c1ccc(OCCN2CCCCC2)cc1)c1ccc(OC)cc1`, the GI50 is 14.7 µM in the experiment with TK-10 renal; 1.01 µM in the experiment on T-47D breast; 2.01 µM in the experiment with UACC-62 melanoma; 3.41 µM in the experiment with NCI-H522 lung; 1.94 µM in the experiment on ACHN renal; 1.78 µM in the experiment on SK-MEL-28 melanoma. The GI50 with NCI-H460 lung was 2.17 µM; with HL-60(TB) leukemia, 1.99 µM; in the experiment on SN12C renal it was 2.82 µM. The TGI with TK-10 renal came to 29.2 µM; with T-47D breast it was 3 µM; in the experiment with UACC-62 melanoma, 4.03 µM; with NCI-H522 lung it was 13.7 µM; in the experiment on ACHN renal, 4.15 µM; with SK-MEL-28 melanoma, 3.48 µM. Moreover, the TGI was 4.72 µM in the experiment with NCI-H460 lung, 4.1 µM with HL-60(TB) leukemia and 11.3 µM in the experiment on SN12C renal.

On to `CCN(CC)CCCC(C)N=c1cc(Nc2cc(=NC(C)CCCN(CC)CC)c3cc(OC)ccc3o2)oc2ccc(OC)cc12` (configuration not stated), for which the GI50 is 1.3 µM in the experiment on TK-10 renal; 2.92 µM with T-47D breast; 1.04 µM with UACC-62 melanoma; 1.04 µM with NCI-H522 lung; 0.838 µM with SK-MEL-28 melanoma; 0.679 µM in the experiment on NCI-H460 lung. Besides, the figures for the GI50 in the experiment on HL-60(TB) leukemia, in the experiment on SN12C renal and in the experiment on UACC-257 melanoma were 2.66 µM, 1.4 µM and 0.872 µM, respectively. For the same compound, the TGI in the experiment on TK-10 renal turned out to be 3.22 µM; with T-47D breast it was 13.2 µM; in the experiment with UACC-62 melanoma it was 2.39 µM; in the experiment with NCI-H522 lung, 2.15 µM; in the experiment with SK-MEL-28 melanoma it was 1.52 µM; in the experiment on NCI-H460 lung, 2.15 µM. Also, the results for the TGI in the experiment with HL-60(TB) leukemia, with SN12C renal and in the experiment with UACC-257 melanoma were 13.2 µM, 11.8 µM and 1.67 µM, respectively.

With `O=C(NO)c1ccc(Cn2c(=O)n(-c3ccccc3F)c(=O)c3ccccc32)cc1`, the GI50 is 1.43 µM in the experiment on TK-10 renal; 1.38 µM in the experiment on T-47D breast; 1.24 µM with UACC-62 melanoma; 0.542 µM in the experiment with NCI-H522 lung; 2.04 µM in the experiment on ACHN renal; 1.77 µM with SK-MEL-28 melanoma. Besides, the figures for the GI50 in the experiment with NCI-H460 lung, in the experiment with HL-60(TB) leukemia and with UACC-257 melanoma were 1.9 µM, 3.48 µM and 1.25 µM, respectively. Also, the TGI is 5.16 µM in the experiment with TK-10 renal; 5.92 µM in the experiment with T-47D breast; 3.02 µM in the experiment on UACC-62 melanoma; 2.05 µM with NCI-H522 lung; 5.59 µM in the experiment on ACHN renal; 4.25 µM in the experiment on SK-MEL-28 melanoma. Further, the values for the TGI in the experiment with NCI-H460 lung, in the experiment with HL-60(TB) leukemia and in the experiment on UACC-257 melanoma were 10.4 µM, over 100 µM and 3.22 µM, respectively.

For `CCCCN(CCCC)CCCn1c(=O)c2c3ccccc3n(C)c2n2nnc(-c3ccccc3)c12`, the GI50 with TK-10 renal was 1.9 µM; in the experiment on T-47D breast, 54.6 µM; in the experiment with UACC-62 melanoma, 22.4 µM; with ACHN renal, 34.7 µM; in the experiment with SK-MEL-28 melanoma, over 100 µM; with NCI-H460 lung it was 41.2 µM. The GI50 with HL-60(TB) leukemia was 2.54 µM; with SN12C renal, 19.4 µM; in the experiment with UACC-257 melanoma it was 28.7 µM. Also, the TGI was 22.4 µM with TK-10 renal; over 100 µM in the experiment with T-47D breast; 84.4 µM in the experiment on UACC-62 melanoma; over 100 µM in the experiment with ACHN renal; over 100 µM in the experiment on SK-MEL-28 melanoma; over 100 µM in the experiment on NCI-H460 lung. The TGI with HL-60(TB) leukemia was 41.7 µM; with SN12C renal, 94.8 µM; with UACC-257 melanoma, 82.5 µM.

Consider `Cc1cn2c(/C=N/N=C(N)N)c(-c3cccnc3)nc2s1`, for which the GI50 is 6.85 µM in the experiment with TK-10 renal; 1.94 µM in the experiment with T-47D breast; 11 µM with UACC-62 melanoma; 12.1 µM in the experiment on NCI-H522 lung; 11.5 µM in the experiment on ACHN renal; 12.4 µM in the experiment with SK-MEL-28 melanoma. Further, the GI50 in the experiment on NCI-H460 lung was 14.7 µM; in the experiment on HL-60(TB) leukemia, 3.8 µM; in the experiment on UACC-257 melanoma it was 16.5 µM. Moreover, the TGI is 21.3 µM in the experiment with TK-10 renal; 12.1 µM with T-47D breast; 23.6 µM in the experiment on UACC-62 melanoma; 39.6 µM in the experiment with NCI-H522 lung; 25.8 µM with ACHN renal; 26.3 µM with SK-MEL-28 melanoma. The TGI in the experiment on NCI-H460 lung came to 76.6 µM; with HL-60(TB) leukemia, 53.8 µM; in the experiment on UACC-257 melanoma, 35.4 µM.

The record behind these values is PubChem BioAssay (NCI).
